According to patent US20130337564A1, “Treatment of Pluripotent Cells” (Janssen Biotech, Inc., priority 2012, published 2013):
Values joined by “and” are separate entries in the source; they are usually repeats but may differ in a detail not shown here. Equal entries are not always repeated.

Columns and labels:
[1] = tested on: cells expressing pluripotency markers derived from human embryonic stem cells; assay: MTS viability (toxicity) assay of cells expressing pluripotency markers; assay type: cell-based; design: Raw data (duplicate), first replicate / Average: unit not given here; details: for viability at 10 µM: Homo sapiens, Embryonic stem cell; for viability at 10 µM / % Control: viability of cells expressing pluripotency markers, relative to control; for Raw data (duplicate), first replicate / Raw data (duplicate), second replicate: MTS viability assay raw reading; for Raw data (duplicate), first replicate: replicate 1; for Raw data (duplicate), second replicate: replicate 2; for Average: average of duplicate MTS raw readings; for Average of raw data (duplicate), optical density at 490 nm / % Control (percentage viability of control): MTS on day 4; for % Control (percentage viability of control): relative to Activin A + Wnt3a positive control
Method in brief: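 Cells expressing pluripotency markers, derived from human embryonic stem cells, were plated at 20,000 cells per well in 96-well clear-bottom plates and cultured overnight. Test compounds were applied in assay medium on days 1 and 2, and compound-free medium on days 3 and 4. On day 4, MTS was added and optical density at 490 nm was read in duplicate.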

[2] = tested on: human embryonic stem cells (H9 line); assay: High content screening assay: cell number (proliferative response); assay type: cell-based; details: for Proliferative Response Fold over Wnt 3a/AA control: normalised to Wnt 3a/AA control
Method in brief: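 H9 hESCs on MATRIGEL treated days 1-2 with 10 μM compound in DMEM:F12, 0.5% FCS, 100 ng/ml activin A; days 3-4 with 2% FCS plus activin A without compound. Fixed cells immunostained for Sox17 or HNF-3beta with Draq5 nuclear counterstain. Cell number and staining intensity quantified by high-content imaging, 12 fields/well.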

[3] = cell number in the wells analysed for HNF-3b expression
[4] = cell number in the wells analysed for SOX-17 expression

Compound: O=C1NC(=O)C(c2cn(CCCO)c3ncccc23)=C1c1ccccc1C(F)(F)F [Compound 16, 3-[1-(3-Hydroxypropyl)-1H-pyrrolo[2,3-b]pyridin-3-yl]-4-[2-(trifluoromethyl)phenyl]-1H-pyrrole-2,5-dione]
- viability at 10 µM [1]: 73.7%
- Raw data (duplicate), first replicate [1]: 0.641
- Raw data (duplicate), second replicate [1]: 0.601
- Average [1]: 0.621

Compound: O=C1NC(=O)C(c2cn(CCCO)c3ncccc23)=C1c1cccs1 [Compound 17, 3-[1-(3-Hydroxypropyl)-1H-pyrrolo[2,3-b]pyridin-3-yl]-4-thiophen-2-yl-1H-pyrrole-2,5-dione]
- viability at 10 µM [1]: 99.1%
- Raw data (duplicate), first replicate [1]: 0.803
- Raw data (duplicate), second replicate [1]: 0.782
- Average [1]: 0.792
- Proliferative Response Total cells [2, 3]: 83
- Proliferative Response Total cells [2, 4]: 158

Compound: O=C1NC(=O)C(c2cn(CCCO)c3ncccc23)=C1c1cc(Cl)sc1Cl [Compound 18, 3-(2,5-Dichlorothiophen-3-yl)-4-[1-(3-hydroxypropyl)-1H-pyrrolo[2,3-b]pyridin-3-yl]-1H-pyrrole-2,5-dione]
- viability at 10 µM [1]: 69.9%
- Raw data (duplicate), first replicate [1]: 0.637
- Raw data (duplicate), second replicate [1]: 0.554
- Average [1]: 0.595
- Proliferative Response Total cells [2, 3]: 4
- Proliferative Response Total cells [2, 4]: 3

Compound: COCCCn1cc(C2=C(c3ccccc3O)C(=O)NC2=O)c2cccnc21 [Compound 22, 3-(2-Hydroxyphenyl)-4-{1-[3-(methyloxy)propyl]-1H-pyrrolo[2,3-b]pyridin-3-yl}-1H-pyrrole-2,5-dione]
- viability at 10 µM [1]: 108%
- Raw data (duplicate), first replicate [1]: 0.900
- Raw data (duplicate), second replicate [1]: 0.877
- Average [1]: 0.888
- Proliferative Response Total cells [2, 3]: 69
- Proliferative Response Total cells [2, 4]: 33

Compound: COc1ccccc1C1=C(c2cn(-c3ccc4ccccc4c3)c3ncccc23)C(=O)NC1=O [Compound 23, 3-[2-(Methyloxy)phenyl]-4-(1-naphthalen-2-yl-1H-pyrrolo[2,3-b]pyridin-3-yl)-1H-pyrrole-2,5-dione]
- viability at 10 µM [1]: 102%
- Raw data (duplicate), first replicate [1]: 0.882
- Raw data (duplicate), second replicate [1]: 0.748
- Average [1]: 0.815
- Proliferative Response Total cells [2, 3]: 399
- Proliferative Response Total cells [2, 4]: 88

Compound: COc1ccccc1C1=C(c2cn(CCCNC(=O)OC(C)(C)C)c3ncccc23)C(=O)NC1=O [Compound 26, 1,1-Dimethylethyl [3-(3-{4-[2-(methyloxy)phenyl]-2,5-dioxo-2,5-dihydro-1H-pyrrol-3-yl}-1H-pyrrolo[2,3-b]pyridin-1-yl)propyl]carbamate]
- viability at 10 µM [1]: 76.4%
- Raw data (duplicate), first replicate [1]: 0.568
- Raw data (duplicate), second replicate [1]: 0.709
- Average [1]: 0.639
- Proliferative Response Total cells [2, 3]: 136
- Proliferative Response Total cells [2, 4]: 109

Compound: COc1ccccc1C1=C(c2cn(CCCNC(C)=O)c3ncccc23)C(=O)NC1=O [Compound 27, N-[3-(3-{4-[2-(Methyloxy)phenyl]-2,5-dioxo-2,5-dihydro-1H-pyrrol-3-yl}-1H-pyrrolo[2,3-b]pyridin-1-yl)propyl]acetamide]
- viability at 10 µM [1]: 7.2%
- Raw data (duplicate), first replicate [1]: 0.160
- Raw data (duplicate), second replicate [1]: 0.186
- Average [1]: 0.173
- Proliferative Response Total cells [2, 3]: 5
- Proliferative Response Total cells [2, 4]: 5

Compound: O=C1NC(=O)C(c2cn(CCCO)c3ncccc23)=C1c1cnccn1 [Compound 47, 3-[1-(3-Hydroxypropyl)-1H-pyrrolo[2,3-b]pyridin-3-yl]-4-pyrazin-2-yl-1H-pyrrole-2,5-dione]
- viability at 10 µM [1]: 104%
- fold induction at 10 µM ([2]; Homo sapiens, Embryonic stem cell, 10 μM test compound with 100 ng/ml activin A on days 1-2, H9, total cell number by IN Cell Analyzer, strong and moderate hits, read-out: Proliferative Response, Fold over Wnt 3a/AA control): 1.37
- Proliferative Response Total cells [2, 3]: 6908
- Proliferative Response Total cells [2, 4]: 10447

Compound: CCN1CCOCCOCCn2cc(c3ccccc32)C2=C(C(=O)NC2=O)c2cn(c3ccccc23)CC1 [Compound 103, 14-Ethyl-6,7,9,10,13,14,15,16-octahydro-12H,23H-5,26:17,22-di(metheno)dibenzo[k,q]pyrrolo[3,4-n][1,4,7,10,19]dioxatriacyclohenicosine-23,25(24H)-dione]
- Raw data (duplicate), first replicate [1]: 0.141
- Raw data (duplicate), second replicate [1]: 0.162
- Average [1]: 0.151
- Average of raw data (duplicate), optical density at 490 nm ([1]; cmpd conc 2.5 μM): 0.4737
- % Control (percentage viability of control) ([1]; cmpd conc 2.5 μM): 51.4%
- Average of raw data (duplicate), optical density at 490 nm ([1]; cmpd conc 5 μM): 0.2618
- % Control (percentage viability of control) ([1]; cmpd conc 5 μM): 19.7%
- Average of raw data (duplicate), optical density at 490 nm ([1]; cmpd conc 10 μM): 0.1339
- % Control (percentage viability of control) ([1]; cmpd conc 10 μM): 0.5%
- % Control [1]: 4.3%

Compound: CN1CCN(C)CCn2cc(c3ccccc32)C2=C(C(=O)NC2=O)c2cn(c3ccccc23)CC1 [Compound 111, 8,11-Dimethyl-6,7,8,9,10,11,12,13-octahydro-20H-5,23:14,19-di(metheno)dibenzo[k,q]pyrrolo[3,4-n][1,4,7,10]tetraazacyclooctadecine-20,22(21H)-dione]
- Raw data (duplicate), first replicate [1]: 0.821
- Raw data (duplicate), second replicate [1]: 0.841
- Average [1]: 0.831
- Average of raw data (duplicate), optical density at 490 nm ([1]; cmpd conc 2.5 μM): 0.8169
- % Control (percentage viability of control) ([1]; cmpd conc 2.5 μM): 102.9%
- Average of raw data (duplicate), optical density at 490 nm ([1]; cmpd conc 5 μM): 0.7718
- % Control (percentage viability of control) ([1]; cmpd conc 5 μM): 96.1%
- Average of raw data (duplicate), optical density at 490 nm ([1]; cmpd conc 10 μM): 0.6709
- % Control (percentage viability of control) ([1]; cmpd conc 10 μM): 81.0%
- % Control [1]: 108.0%

Compound: CN1CCOCCOCCN(C)CCn2cc(c3ccccc32)C2=C(C(=O)NC2=O)c2cn(c3ccccc23)CC1 [Compound 112, 12,21-Dimethyl-11,12,13,14,16,17,20,21,22,23-decahydro-1H,10H,19H-9,4:24,29-di(metheno)dibenzo[k,q]pyrrolo[3,4-n][1,4,7,10,19,22]dioxatetraazacyclotetracosine-1,3(2H)-dione]
- Raw data (duplicate), first replicate [1]: 0.981
- Raw data (duplicate), second replicate [1]: 1.056
- Average [1]: 1.018
- Average of raw data (duplicate), optical density at 490 nm ([1]; cmpd conc 2.5 μM): 0.8103
- % Control (percentage viability of control) ([1]; cmpd conc 2.5 μM): 101.9%
- Average of raw data (duplicate), optical density at 490 nm ([1]; cmpd conc 5 μM): 0.1283
- Average of raw data (duplicate), optical density at 490 nm ([1]; cmpd conc 10 μM): 0.1283
- % Control [1]: 145.3%

Compound: O=C1NC(=O)C2=C1c1cn(c3ccccc13)CCOCCOCCN(Cc1cccs1)CCn1cc2c2ccccc21 [Compound 133, 14-(2-Thienylmethyl)-6,7,9,10,13,14,15,16-octahydro-12H,23H-5,26:17,22-di(metheno)dibenzo[k,q]pyrrolo[3,4-n][1,4,7,10,19]dioxatriazacyclohenicosine-23,25(24H)-dione]
- Raw data (duplicate), first replicate [1]: 0.823
- Raw data (duplicate), second replicate [1]: 0.634
- Average [1]: 0.728
- Average of raw data (duplicate), optical density at 490 nm ([1]; cmpd conc 2.5 μM): 0.7939
- % Control (percentage viability of control) ([1]; cmpd conc 2.5 μM): 92.8%
- Average of raw data (duplicate), optical density at 490 nm ([1]; cmpd conc 5 μM): 0.6661
- % Control (percentage viability of control) ([1]; cmpd conc 5 μM): 75.0%
- Average of raw data (duplicate), optical density at 490 nm ([1]; cmpd conc 10 μM): 0.3010
- % Control (percentage viability of control) ([1]; cmpd conc 10 μM): 24.1%
- % Control [1]: 98.1%

Compound: O=C1NC(=O)C2=C1c1cn(c3ccccc13)CCOCCOCCN(Cc1cccc3ccccc13)CCn1cc2c2ccccc21 [Compound 136, 14-(Naphthalen-1-ylmethyl)-6,7,9,10,13,14,15,16-octahydro-12H,23H-5,26:17,22-di(metheno)dibenzo[k,q]pyrrolo[3,4-n][1,4,7,10,19]dioxatriazacyclohenicosine-23,25(24H)-dione]
- Raw data (duplicate), first replicate [1]: 0.699 and 0.697
- Raw data (duplicate), second replicate [1]: 0.679 and 0.695
- Average [1]: 0.689 and 0.696
- Average of raw data (duplicate), optical density at 490 nm ([1]; cmpd conc 2.5 μM): 0.8432
- % Control (percentage viability of control) ([1]; cmpd conc 2.5 μM): 99.6%
- Average of raw data (duplicate), optical density at 490 nm ([1]; cmpd conc 5 μM): 0.7935
- % Control (percentage viability of control) ([1]; cmpd conc 5 μM): 92.7%
- Average of raw data (duplicate), optical density at 490 nm ([1]; cmpd conc 10 μM): 0.8425
- % Control (percentage viability of control) ([1]; cmpd conc 10 μM): 99.5%
- % Control [1]: 86.3% and 87.3%

Compound: O=C1NC(=O)C2=C1c1cn(c3ccccc13)CCOCCOCCOCCn1cc2c2ccccc21 [Compound 163, 6,7,9,10,12,13,15,16-Octahydro-23H-5,26:17,22-di(metheno)dibenzo[k,q]pyrrolo[3,4-n][1,4,7,10,19]trioxadiazacyclohenicosine-23,25(24H)-dione]
- Raw data (duplicate), first replicate [1]: 0.678
- Raw data (duplicate), second replicate [1]: 0.661
- Average [1]: 0.670
- % Control [1]: 80.8%
- Proliferative Response Total cells [2, 3]: 5485
- Proliferative Response Fold over Wnt 3a/AA control [2, 3]: 4.327 fold
- Proliferative Response Total cells [2, 4]: 1313
- Proliferative Response Fold over Wnt 3a/AA control [2, 4]: 0.7864 fold

Compound: O=C1NC(=O)C2=C1c1cn(c3ccccc13)CCOCCOCCn1cc2c2ccccc21 [Compound 164, 6,7,9,10,12,13-Hexahydro-20H-5,23:14,19-di(metheno)dibenzo[h,n]pyrrolo[3,4-k][1,4,7,16]dioxadiazacyclooctadecine-20,22(21H)-dione]
- Raw data (duplicate), first replicate [1]: 0.603
- Raw data (duplicate), second replicate [1]: 0.584
- Average [1]: 0.593
- % Control [1]: 69.4%
- Proliferative Response Total cells [2, 3]: 67
- Proliferative Response Fold over Wnt 3a/AA control [2, 3]: 0.05259 fold
- Proliferative Response Total cells [2, 4]: 12
- Proliferative Response Fold over Wnt 3a/AA control [2, 4]: 0.007385 fold
